Molecular target: T1, recombinant murine Aurora A enzyme (Mus musculus, UniProt P97477)
T1 construct: hexahistidine (His6) (N); made in house; host or cells: insect cells (baculovirus, Bac-to-Bac)
T1 sequence (P97477 1-395): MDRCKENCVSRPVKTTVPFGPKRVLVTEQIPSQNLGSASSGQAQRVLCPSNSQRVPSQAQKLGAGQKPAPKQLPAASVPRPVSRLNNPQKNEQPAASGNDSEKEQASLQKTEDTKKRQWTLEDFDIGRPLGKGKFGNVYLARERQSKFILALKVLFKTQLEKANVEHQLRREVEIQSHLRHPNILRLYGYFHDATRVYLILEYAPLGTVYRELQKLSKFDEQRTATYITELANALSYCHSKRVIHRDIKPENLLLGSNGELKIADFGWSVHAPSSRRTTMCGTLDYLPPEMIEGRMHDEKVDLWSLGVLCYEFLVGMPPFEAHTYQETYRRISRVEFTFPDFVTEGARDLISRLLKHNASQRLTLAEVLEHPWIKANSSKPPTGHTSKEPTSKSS
Experiment: Aurora A DELFIA Kinase Assay
Format: biochemical
Settings: 1 mM ATP, 20 nM enzyme, 10 minutes at room temperature
Procedure: Recombinant mouse Aurora A with an amino-terminus hexahistidine tag (His-Aurora A) was expressed using a standard baculovirus vector and insect cell expression system (Bac-to-Bac®, Invitrogen). Soluble, recombinant mouse Aurora A was purified from insect cells using Ni-NTA agarose (Qiagen) as described by the manufacturer and further purified over an S75 size exclusion column (Amersham Pharmacia Biotech). The mouse Aurora A enzymatic reaction totaled 25 μL and contained 25 mM Tris-HCl (pH 8.5), 2.5 mM MgCl2, 0.05% Surfact-AMPS-20, 5 mM Sodium Fluoride, 5 mM DTT, 1 mM ATP, 3 μM peptide substrate (Biotin-β-[…]), and 20 nM recombinant murine Aurora A enzyme. The enzymatic reaction mixture, with and without Aurora inhibitors, was incubated for 10 minutes at room temperature before termination with 100 μL of stop buffer (1% BSA, 0.05% Surfact-AMPS-20, and 100 mM EDTA). A total of 100 μL of the enzyme reaction mixture was transferred to wells of a Neutravidin-coated 96-well plate (Pierce) and incubated at room temperature for 30 minutes. The wells were washed with wash buffer (25 mM Tris, 150 mM sodium chloride, and 0.1% Tween 20) and incubated for 1 hour with 100 μL of antibody reaction mixture containing 1% BSA, 0.05% Surfact-AMPS-20, anti-phospho-PKA rabbit polyclonal antibody (1:2000, New England Biolabs), and europium labeled anti-rabbit IgG (1:2000, Perkin Elmer). The wells were washed and then the bound europium was liberated using 100 μL of Enhancement Solution (Perkin Elmer). Quantification of europium was done using a WallacTM EnVision (Perkin Elmer).

SMILES	IC50 [nM]
Cc1ccc2c(c1)NC(=O)Cc1cnc(Nc3ccc(C(=O)O)cc3)nc1-2 [Compound I-9, 4-(9-Methyl-6-oxo-6,7-dihydro-5H-benzo[b]pyrimido[4,5-d]azepin-2-ylamino)-benzoic acid]	≤ 500
COc1ccc(Nc2ncc3c(n2)-c2ccc(Cl)cc2NC(=O)C3)cc1OC [Compound I-2, 9-Chloro-2-(3,4-dimethoxy-phenylamino)-5H,7H-benzo[b]pyrimido[4,5-d]azepin-6-one]	≤ 500
NCCCCNC(=O)c1cccc(Nc2ncc3c(n2)-c2ccc(Cl)cc2NC(=O)C3)c1 [Compound I-64, N-(4-Amino-butyl)-3-(9-chloro-6-oxo-6,7-dihydro-5H-benzo[b]pyrimido[4,5-d]azepin-2-ylamino)-benzamide]	≤ 500
COc1ccc(Nc2ncc3c(n2)-c2ccc(CCCN4CCCC4)cc2NC(=O)C3)cc1OC [Compound I-49, 2-(3,4-Dimethoxy-phenylamino)-9-(3-pyrrolidin-1-yl-propyl)-5H,7H-benzo[b]-pyrimido[4,5-d]azepin-6-one]	≤ 500
COc1ccc(Nc2ncc3c(n2)-c2ccc(C(=O)NCCCCN)cc2NC(=O)C3)cc1OC [Compound I-73, 2-(3,4-Dimethoxy-phenylamino)-6-oxo-6,7-dihydro-5H-benzo[b]pyrimido[4,5-d]azepine-9-carboxylic acid (4-amino-butyl)-amide]	≤ 500
COc1ccc(Nc2ncc3c(n2)-c2ccccc2NC(=O)C3)cc1OC [Compound I-27, 2-(3,4-Dimethoxy-phenylamino)-5H,7H-benzo[b]pyrimido[4,5-d]azepin-6-one]	≤ 500
CNCCCc1ccc2c(c1)NC(=O)Cc1cnc(Nc3ccc(OC)c(OC)c3)nc1-2 [Compound I-87, 2-(3,4-Dimethoxy-phenylamino)-9-(3-methylamino-propyl)-5H,7H-benzo[b]pyrimido[4,5-d]azepin-6-one]	≤ 500
O=C(O)c1ccc(Nc2ncc3c(n2)-c2ccc(Cl)cc2N(c2ccccc2)C(=O)C3)cc1 [Compound I-10, 4-(9-Chloro-6-oxo-7-phenyl-6,7-dihydro-5H-benzo[b]pyrimido[4,5-d]azepin-2-ylamino)-benzoic acid]	≤ 500
NCCNC(=O)c1cccc(Nc2ncc3c(n2)-c2ccc(Cl)cc2NC(=O)C3)c1 [Compound I-62, N-(2-Amino-ethyl)-3-(9-chloro-6-oxo-6,7-dihydro-5H-benzo[b]pyrimido[4,5-d]azepin-2-ylamino)-benzamide]	≤ 500
COc1ccc(Nc2ncc3c(n2)-c2ccc(I)cc2NC(=O)C3)cc1OC [Compound I-30, 2-(3,4-dimethoxy-phenylamino)-9-iodo-5H,7H-benzo[b]pyrimido[4,5-d]azepin-6-one]	≤ 500
NCCc1cccc(Nc2ncc3c(n2)-c2ccc(Cl)cc2NC(=O)C3)c1 [Compound I-86, 2-[3-(2-Amino-ethyl)-phenylamino]-9-chloro-5H,7H-benzo[b]pyrimido[4,5-d]azepin-6-one]	≤ 500
CCc1ccc2c(c1)NC(=O)Cc1cnc(Nc3ccc(OC)c(OC)c3)nc1-2 [Compound I-37, 2-(3,4-Dimethoxy-phenylamino)-9-ethyl-5H,7H-benzo[b]pyrimido[4,5-d]azepin-6-one]	≤ 500
COc1ccc(Nc2ncc3c(n2)-c2ccc(CCCN)cc2NC(=O)C3)cc1OC [Compound I-50, 9-(3-Amino-propyl)-2-(3,4-dimethoxy-phenylamino)-5H,7H-benzo[b]pyrimido[4,5-d]azepin-6-one]	≤ 500
CN1C(=O)Cc2cnc(Nc3ccc(C(=O)O)cc3)nc2-c2ccc(Cl)cc21 [Compound I-7, 4-(9-Chloro-7-methyl-6-oxo-6,7-dihydro-5H-benzo[b]pyrimido[4,5-d]azepin-2-ylamino)-benzoic acid]	≤ 500
C#Cc1ccc2c(c1)NC(=O)Cc1cnc(Nc3ccc(OC)c(OC)c3)nc1-2 [Compound I-33, 2-(3,4-dimethoxy-phenylamino)-9-ethynyl-5H,7H-benzo[b]pyrimido[4,5-d]azepin-6-one]	≤ 500
O=C1Cc2cnc(Nc3ccc(C#CCN4CCCC4)cc3)nc2-c2ccc(Cl)cc2N1 [Compound I-47, 9-Chloro-2-[4-(3-pyrrolidin-1-yl-prop-1-ynyl)-phenylamino]-5H,7H-benzo[b]-pyrimido[4,5-d]azepin-6-one]	≤ 500
NCC#Cc1cccc(Nc2ncc3c(n2)-c2ccc(Cl)cc2NC(=O)C3)c1 [Compound I-67, 2-[3-(3-Amino-prop-1-ynyl)-phenylamino]-9-chloro-5H,7H-benzo[b]pyrimido[4,5-d]azepin-6-one]	≤ 500
COc1ccc(Nc2ncc3c(n2)-c2ccc(C#CCN(C)C)cc2NC(=O)C3)cc1OC [Compound I-91, 2-(3,4-Dimethoxy-phenylamino)-9-(3-dimethylamino-prop-1-ynyl)-5H,7H-benzo[b]pyrimido[4,5-d]azepin-6-one]	≤ 500
COc1ccc(Nc2ncc3c(n2)-c2ccc(C#CCN)cc2NC(=O)C3)cc1OC [Compound I-38, 9-(3-Amino-prop-1-ynyl)-2-(3,4-dimethoxy-phenylamino)-5H,7H-benzo[b]pyrimido[4,5-d]azepin-6-one]	≤ 500
COc1ccc(Nc2ncc3c(n2)-c2cc(Br)ccc2NC(=O)C3)cc1OC [Compound I-18, 10-Bromo-2-(3,4-dimethoxy-phenylamino)-5H,7H-benzo[b]pyrimido[4,5-d]azepin-6-one]	≤ 5000
COc1ccc(Nc2ncc3c(n2)-c2ccc(C(N)=O)cc2NC(=O)C3)cc1OC [Compound I-70, 2-(3,4-dimethoxy-phenylamino)-6-oxo-6,7-dihydro-5H-benzo[b]pyrimido[4,5-d]azepine-9-carboxylic acid amide]	≤ 500
CCCc1ccc2c(c1)NC(=O)Cc1cnc(Nc3ccc(OC)c(OC)c3)nc1-2 [Compound I-82, 2-(3,4-Dimethoxy-phenylamino)-9-propyl-5H,7H-benzo[b]pyrimido[4,5-d]azepin-6-one]	≤ 500
O=C1Cc2cnc(Nc3ccc(CCCN4CCCC4)cc3)nc2-c2ccc(Cl)cc2N1 [Compound I-66, 9-Chloro-2-[4-(3-pyrrolidin-1-yl-propyl)-phenylamino]-5H,7H-benzo[b]pyrimido[4,5-d]-azepin-6-one]	≤ 500
COc1ccc(Nc2ncc3c(n2)-c2ccc(C(=O)O)cc2NC(=O)C3)cc1OC [Compound I-53, 2-(3,4-dimethoxy-phenylamino)-6-oxo-6,7-dihydro-5H-benzo[b]pyrimido[4,5-d]azepine-9-carboxylic acid]	≤ 500
COc1ccc(Nc2ncc3c(n2)-c2ccc(CCCN(C)C)cc2NC(=O)C3)cc1OC [Compound I-88, 2-(3,4-Dimethoxy-phenylamino)-9-(3-dimethylamino-propyl)-5H,7H-benzo[b]pyrimido[4,5-d]azepin-6-one]	≤ 500
COc1ccc(Nc2ncc3c(n2)-c2ccc(C#CCN4CCCC4)cc2NC(=O)C3)cc1OC [Compound I-32, 2-(3,4-Dimethoxy-phenylamino)-9-(3-pyrrolidin-1-yl-prop-1-ynyl)-5H,7H benzo[b]pyrimido[4,5-d]azepin-6-one]	≤ 500
COc1ccc(Nc2ncc3c(n2)-c2ccc(C)cc2NC(=O)C3)cc1OC [Compound I-42, 2-(3,4-Dimethoxy-phenylamino)-9-methyl-5H,7H-benzo[b]pyrimido[4,5-d]azepin-6-one]	≤ 500
COc1ccc(Nc2ncc3c(n2)-c2ccc(C(=O)NCCCN)cc2NC(=O)C3)cc1OC [Compound I-72, 2-(3,4-Dimethoxy-phenylamino)-6-oxo-6,7-dihydro-5H-benzo[b]pyrimido[4,5-d]azepine-9-carboxylic acid (3-amino-propyl)-amide]	≤ 500
COc1ccc(Nc2ncc3c(n2)-c2ccc(C(=O)NCCN)cc2NC(=O)C3)cc1OC [Compound I-71, 2-(3,4-Dimethoxy-phenylamino)-6-oxo-6,7-dihydro-5H-benzo[b]pyrimido[4,5-d]azepine-9-carboxylic acid (2-amino-ethyl)-amide]	≤ 500
O=C1Cc2cnc(Nc3cccc(C#CCN4CCCC4)c3)nc2-c2ccc(Cl)cc2N1 [Compound I-89, 9-Chloro-2-[3-(3-pyrrolidin-1-yl-prop-1-ynyl)-phenylamino]-5H,7H-benzo[b]-pyrimido[4,5-d]azepin-6-one]	≤ 500

From patent US7935694B2, “Lactam compounds useful as protein kinase inhibitors” (Millennium Pharmaceuticals, Inc., priority 2004, dated 2011)
